Source: patent US20100069460A1, “1-PHENYL 1-THIO-D-GLUCITOL DERIVATIVE” (TAISHO PHARMACEUTICAL CO., LTD., priority 2006, published 2010)

Columns and labels:
[1] = target: T1, human SGLT1 (Homo sapiens, UniProt P13866); experiment: Inhibition test for sodium-dependent sugar uptake in CHO-k1 cells stably expressing human SGLT1; format: cell-based; settings: 0.1 mM [14C]methyl α-D-glucopyranoside uptake, 37° C., 30 minutes
T1 construct: expressed in transfected cells; vector pCMV-tag5A (Stratagene)
T1 sequence (P13866 1-664): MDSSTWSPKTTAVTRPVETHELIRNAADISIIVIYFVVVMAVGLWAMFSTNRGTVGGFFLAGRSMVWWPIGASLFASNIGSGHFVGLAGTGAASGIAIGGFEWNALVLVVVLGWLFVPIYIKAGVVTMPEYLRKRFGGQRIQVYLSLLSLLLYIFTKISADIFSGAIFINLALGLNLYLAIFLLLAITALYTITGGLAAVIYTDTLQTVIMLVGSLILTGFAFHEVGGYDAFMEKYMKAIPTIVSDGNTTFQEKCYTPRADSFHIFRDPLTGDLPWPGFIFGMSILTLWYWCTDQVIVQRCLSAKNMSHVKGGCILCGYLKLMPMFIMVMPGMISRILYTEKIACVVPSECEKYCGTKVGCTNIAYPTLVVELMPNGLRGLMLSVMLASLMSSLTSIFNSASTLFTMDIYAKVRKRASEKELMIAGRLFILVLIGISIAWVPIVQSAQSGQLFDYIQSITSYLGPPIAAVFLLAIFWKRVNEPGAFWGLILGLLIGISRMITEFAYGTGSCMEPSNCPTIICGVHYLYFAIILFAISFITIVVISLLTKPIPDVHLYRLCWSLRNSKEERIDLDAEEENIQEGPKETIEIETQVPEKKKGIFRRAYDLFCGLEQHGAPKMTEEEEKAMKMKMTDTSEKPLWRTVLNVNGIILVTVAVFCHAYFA
Description: (§1) A human SGLT1 sequence (NM_000343) was reverse-transcribed and amplified from human small intestine mRNA, and then introduced into pCMV-tag5A (Stratagene). Likewise, a human SGLT2 sequence (NM_003041) was prepared from human kidney mRNA in the same manner and introduced into pcDNA3.1+hygro (Invitrogen). The individual cloned sequences were confirmed to be identical with the sequences reported.
(§2) The human SGLT1 and human SGLT2 expression vectors were each transfected into CHO-k1 cells using lipofectamine 2000 (Invitrogen). The cells were cultured in the presence of 500 μg/mL geneticin (SGLT1) or hygromycin B (SGLT2) to select resistant strains and specific activity of sugar uptake in the system shown below was used as an indicator to obtain SGLT-expressing cells.
(§3) The cells stably expressing human SGLT1 or human SGLT2 were used for an inhibition test of sodium-dependent sugar uptake activity.
(§4) The cells were incubated for 20 minutes in 1 mL pretreatment buffer (140 mM choline chloride, 2 mM KCl, 1 mM CaCl2, 1 mM MgCl2, 10 mM HEPES/5 mM Tris, pH 7.4). The pretreatment buffer was removed and replaced with 200 μL uptake buffer containing a test compound (methyl α-D-glucopyranoside (containing [^14C]methyl α-D-glucopyranoside) at 0.1 mM for SGLT1 inhibition and 1 mM for SGLT2 inhibition, 140 mM NaCl, 2 mM KCl, 1 mM CaCl2, 1 mM MgCl2, 10 mM HEPES/5 mM Tris, pH 7.4). Uptake reaction was performed at 37° C. for 30 minutes (SGLT1) or 1 hour (SGLT2). After the reaction, the cells were washed twice with 1 mL washing buffer (10 mM methyl α-D-glucopyranoside, 140 mM choline chloride, 2 mM KCl, 1 mM CaCl2, 1 mM MgCl2, 10 mM HEPES/5 mM Tris, pH 7.4), and then dissolved in a 0.2 M NaOH solution (400 μL). Aquazol 2 (Perkin Elmer) was added and mixed well with each sample, followed by measurement of radioactivity using a liquid scintillation counter (Beckman Coulter) to calculate the amount of sugar uptake. For the control group, uptake buffer containing no test compound was prepared. Moreover, another uptake buffer containing choline chloride instead of NaCl was also prepared for basal uptake.
(§5) Test compounds prepared at 6 appropriate concentrations were used to measure the amount of sugar uptake, and their concentrations required for 50% inhibition of the amount of sugar uptake were calculated as IC50 values, assuming that the amount of sugar uptake in the control group was set to 100%.

[2] = target: T2, human SGLT2 (Homo sapiens, UniProt P31639); experiment: Inhibition test for sodium-dependent sugar uptake in CHO-k1 cells stably expressing human SGLT2; format: cell-based; settings: 1 mM [14C]methyl α-D-glucopyranoside uptake, 37° C., 1 hour
T2 construct: expressed in transfected cells; vector pcDNA3.1+hygro (Invitrogen)
T2 sequence (P31639 1-672): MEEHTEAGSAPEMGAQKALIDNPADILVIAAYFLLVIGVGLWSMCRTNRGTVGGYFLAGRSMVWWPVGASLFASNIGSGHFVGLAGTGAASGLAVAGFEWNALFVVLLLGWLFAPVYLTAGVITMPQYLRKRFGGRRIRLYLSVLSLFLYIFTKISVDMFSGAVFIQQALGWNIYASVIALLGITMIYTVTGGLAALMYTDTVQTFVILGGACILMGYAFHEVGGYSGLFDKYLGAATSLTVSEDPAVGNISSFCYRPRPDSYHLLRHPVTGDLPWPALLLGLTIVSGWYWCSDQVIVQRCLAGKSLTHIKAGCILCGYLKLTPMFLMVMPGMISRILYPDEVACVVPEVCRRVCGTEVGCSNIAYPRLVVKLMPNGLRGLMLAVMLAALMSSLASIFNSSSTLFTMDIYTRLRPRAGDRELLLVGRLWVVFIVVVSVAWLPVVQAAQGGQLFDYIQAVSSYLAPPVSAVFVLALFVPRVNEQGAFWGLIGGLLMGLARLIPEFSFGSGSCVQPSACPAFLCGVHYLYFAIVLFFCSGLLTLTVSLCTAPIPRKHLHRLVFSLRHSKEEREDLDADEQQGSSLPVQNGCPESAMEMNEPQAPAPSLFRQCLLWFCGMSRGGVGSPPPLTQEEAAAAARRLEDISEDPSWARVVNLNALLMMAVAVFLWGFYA
Description: as §1, §2, §3, §4, §5

[3] = system: db/db mice; experiment: Confirmation test for hypoglycemic effect in db/db mice; format: in vivo; settings: oral gavage, 1 mg/10 mL suspension at 10 mL/kg, decrease in blood glucose AUC (0 to 8 hours) relative to control group
Description: The laboratory animals used were db/db mice (CLEA Japan, Inc., male, 7 weeks of age). A test substance was suspended in a 0.5% aqueous carboxymethylcellulose (CMC) solution and adjusted to a concentration of 1 mg/10 mL. On the day of the test, the db/db mice were divided into groups of 6 animals each, such that differences in the mean values and variance of their blood glucose levels were minimized, according to the procedures for blood collection and blood glucose measurement described later. The mice were measured for their body weight. Then, the test substance suspension was administered by oral gavage using a probe for oral administration at a volume of 10 mL/kg. The control group received a 0.5% aqueous CMC solution alone. Blood was collected at 8 points in total: before administration of the test substance (0 hour) and 0.5, 1, 2, 4, 6, 8 and 24 hours after oral administration. The test was performed under ad libitum feeding and drinking conditions.
Blood was collected from the orbital venous sinus of each animal under ether anesthesia using a heparin-coated blood collection tube and measured for its blood glucose level with a Glucose CII-Test Wako (Wako Pure Chemical Industries, Ltd., Japan). To determine the intensity (%) of hypoglycemic effect, casual blood glucose levels measured between 0 and 8 hours in each test group were analyzed by the trapezoidal method to calculate the area under the blood glucose-time curve (AUC). The results are expressed as a decrease in AUC relative to that of the control group.

| Structure (SMILES) | IC50 [1] | IC50 [2] | Intensity of hypoglycemic effect [3] |
| --- | --- | --- | --- |
| CCc1ccc(Cc2cc([C@@H]3S[C@H](CO)[C@@H](O)[C@H](O)[C@H]3O)c(O)cc2C)cc1 [III, (1 S)-1,5-anhydro-1-[5-(4-ethylbenzyl)-2-hydroxy-4-methylphenyl]-1-thio-D-glucitol] | 32 nM | 12 nM | – |
| Cc1ccc(Cc2cc([C@@H]3S[C@H](CO)[C@@H](O)[C@H](O)[C@H]3O)c(O)cc2Cl)cc1 [V, (1S)-1,5-anhydro-1-[4-chloro-2-hydroxy-5-(4-methylbenzyl)phenyl]-1-thio-D-glucitol] | 19 nM | 11 nM | – |
| CCOc1ccc(Cc2cc([C@@H]3S[C@H](CO)[C@@H](O)[C@H](O)[C@H]3O)c(O)cc2C)cc1 [Compound 98, reference compound] | – | – | 35.0% |

The remaining molecules from weak to strong by IC50 [1], led by results:

| IC50 [1] | IC50 [2] | Structure (SMILES) | Intensity of hypoglycemic effect [3] |
| --- | --- | --- | --- |
| 33 nM | 13 nM | COc1ccc(Cc2cc([C@@H]3S[C@H](CO)[C@@H](O)[C@H](O)[C@H]3O)c(O)cc2Cl)cc1 [VII, (1S)-1,5-anhydro-1-[4-chloro-2-hydroxy-5-(4-methoxybenzyl)phenyl]-1-thio-D-glucitol] | – |
| 32 nM | 20 nM | COc1ccc(Cc2cc([C@@H]3S[C@H](CO)[C@@H](O)[C@H](O)[C@H]3O)c(O)cc2C)cc1 [II, (1S)-1,5-anhydro-1-[5-(4-methoxybenzyl)-4-methyl-2-hydroxyphenyl]-1-thio-D-glucitol] | 49.7% |
| 29 nM | 8 nM | CCc1ccc(Cc2cc([C@@H]3S[C@H](CO)[C@@H](O)[C@H](O)[C@H]3O)c(O)cc2Cl)cc1 [VI, (1S)-1,5-anhydro-1-[4-chloro-2-hydroxy-5-(4-ethylbenzyl)phenyl]-1-thio-D-glucitol] | – |
| 27 nM | 10 nM | CSc1ccc(Cc2cc([C@@H]3S[C@H](CO)[C@@H](O)[C@H](O)[C@H]3O)c(O)cc2C)cc1 [Compound IV, (1S)-1,5-anhydro-1-[2-hydroxy-4-methyl-5-[4-(methylsulfanyl)benzyl]phenyl]-1-thio-D-glucitol] | – |
| 17 nM | 20 nM | Cc1ccc(Cc2cc([C@@H]3S[C@H](CO)[C@@H](O)[C@H](O)[C@H]3O)c(O)cc2C)cc1 [Compound I, (1S)-1,5-anhydro-1-[4-methyl-5-(4-methylbenzyl)-2-hydroxyphenyl]-1-thio-D-glucitol] | 48.5% |
